According to US20160271072A1, “POLYMER NANOPARTICLES CONTAINING MULTIPLE AGENTS AND METHODS THEREOF” (THE UNIVERSITY OF NORTH CAROLINA AT CHAPEL HILL, priority 2013, published 2016):

Tests used:
[1] = system: A375-luc cells; experiment: Cell viability (MTS) and Chou-Talalay drug combination analysis in A375-luc cells; format: cell-based; conditions: single agent, free or in NP, 2 days drug exposure
Procedure: Cells were seeded in 96-well plates for 24 h at a density of 2×10^3 cells/well. Cell masses that were viable after 2 days of drug exposure were determined by MTS assay. A CellTiter 96 AQueous One Solution Cell Proliferation Assay (Promega, Madison, Wis.) kit containing the tetrazolium compound MTS was used to assay cell viability according to the manufacturer's protocols.
Drug combination analysis was performed by using the method described by Chou and Talalay.
We evaluated the degree of synergy between RAPA and CDDP in terms of cytotoxicity toward A375-luc cells in culture. […] The cytotoxicity of combined CDDP and RAPA was enhanced by NP delivery over free drug combination.

[2] = Serum biochemical value analysis, hematology and organ H&E; format: in vivo, mice; conditions: for blood cell counts (RBC, PLT, WBC, HCT, HGB) vs untreated control: healthy nude mice, three dosages; for ALT / AST / BUN / Creatinine: serum after three injections, n = 5
Procedure: After three injections, blood was collected and centrifuged at 4000 rpm for 5 min to obtain the serum. Blood urea nitrogen (BUN), creatinine, serum aspartate aminotransferase (AST) and alanine aminotransferase (ALT) levels, were assayed as indicators of renal and hepatic function. Whole blood was collected from healthy nude mice after three repeated treatments. Red blood cells (RBC), white blood cells (WBC), platelets (PLT), hemoglobin (HGB) and hematocrits (HCT) were counted for the detection of myelosuppression. Organs (heart, liver, spleen, lung, and kidney) were fixed and sectioned for H&E staining as to evaluate the organ-specific toxicity.

[3] = Drug loading and encapsulation efficiency of cores and PLGA NPs; format: physicochemical; conditions: DOPA coated cores encapsulated separately, DL up to approximately 5 wt %; n=5
Procedure: The loading and encapsulation efficiency of Rapamycin was measured using High-performance Liquid Chromatography (HPLC, Waters, λ=277 nm); the loading and encapsulation efficiency of CDDP was measured using Inductively Coupled Plasma-Mass Spectroscopy (ICP-MS, NexION™ 300, Perkin Elmer Inc); the loading efficiency of GMP was measured both by Ultraviolet-visible spectrometer (UV, DU®800, Beckman Coulter) and ^3H labeled CMP incorporation using a Liquid Scintillation Analyzer (TRI-CARB 2900 TR, Packard Bioscience Co). The size distribution of particle was determined using a Malvern ZetaSizer Nano series (Westborough, Mass.). TEM images of NPs were acquired using a JEOL 100CX II TEM (JEOL, Japan). The NPs were negatively stained with 2% uranyl acetate. Approximately 100 NPs were analyzed for calculating the average number of CDDP cores per PLGA NP.
DL and EE of cisplatin were measured using Inductively Coupled Plasma-Mass Spectroscopy (ICP-MS, NexION™ 300, Perkin Elmer Inc); LE and EE of GMP were both measured by Ultraviolet-Visible Spectroscopy (UV, DU®800, Beckman Coulter) and ^3H labeled cytidine 5′ monophosphate (CMP) [5-^3H] disodium salt (Moravek Bio Inc, 1 mCi/mL) incorporation using a Liquid Scintillation Analyzer (TRI-CARB 2900 TR, Packard Bioscience Co). The size distribution of particles was determined using a Malvern ZetaSizer Nano series (Westborough, Mass.). […]

[4] = system: UMUC3 cells; experiment: MTT cell viability and combination index on UMUC3 cells; format: cell-based, human; conditions: 48 h treatment
Procedure: MTT (3-[4,5-dimethylthiazol-2-yl]-2,5-diphenyltetrazolium bromide) assay was conducted to detect in vitro viability of free GMP, cisplatin and their combinations as well as PLGA GMP NP, PLGA cisplatin NP and PLGA Combo NP. In Brief, cells were seeded in 96-well plates with a density of 3,000 cells per well 24 h prior to drug treatment. On the second day, cells were treated with free drugs or the drug combination at a series of dilutions with various molar ratios. Forty-eight h post treatment, 20 μL of MTT (5 mg/mL) reagent was added for another 4 h at 37° C. The medium was then discarded and the formed formazan salt was dissolved in 150 μL of DMSO. The absorbance in each well was read at the wavelength of 570 nm using a multidetection microplate reader (Plate […]). Each concentration was tested in five wells and data presented as mean±SD. […] Combination Index (CI) Analysis of free drug combination based on the Chou and Talalay method (T. C. Chou, P. Talalay, Adv. Enzyme Regul. 1984, 22, 27) was conducted using CompuSyn software. Briefly, for each level of Fa, the CI values of cisplatin and GMP combinations were calculated according to the following equation: […] CI values of the drug combinations were drawn as a function of Fa. […] (Y. Han, Z. He, […]. Bronich, R. Jordan, […], Mol. Pharm. 2012, 9, 2302).

[5] = system: stroma-rich UMUC3 bladder cancer xenograft; experiment: Anti-tumor efficacy in stroma-rich UMUC3 bladder cancer xenografts (TUNEL, PCNA, Pt-DNA adduct, western blot); format: in vivo, mice; conditions: tumor lysates after three doses

Row | IC50 [1] | IC50 ([1]; 48 h) | Compound | blood cell counts (RBC, PLT, WBC, HCT, HGB) vs untreated control [2] | ALT [2] | AST [2] | BUN [2] | Creatinine [2] | EE into PLGA NP [3] | IC50 [4] | expression of ERCC1 and XPA (western blot) [5]
1 | 10 µM |  | [NH2][Pt]([NH2])([Cl])[Cl] [CDDP, cisplatin] | significantly reduced | 59 ± 1 U/L | 216 ± 15 U/L | 25 ± 1 mg/dL | 0.2 mg/dL | 74.0±10.1% |  | 
2 |  | 16 µM | CO[C@H]1C[C@@H]2CC[C@@H](C)[C@@](O)(O2)C(=O)C(=O)N2CCCC[C@H]2C(=O)O[C@H]([C@H](C)C[C@@H]2CC[C@@H](O)[C@H](OC)C2)CC(=O)[C@H](C)/C=C(\C)[C@@H](O)[C@@H](OC)C(=O)[C@H](C)C[C@H](C)/C=C/C=C/C=C/1C [RAPA, rapamycin] |  |  |  |  |  |  |  | 
3 |  |  | Gemcitabine monophosphate [GMP] | significantly reduced | 47 ± 3 U/L | 122 ± 20 U/L | 24 ± 2 mg/dL | 0.2 mg/dL | 70.6±2.5% | 34.8 µM | down-regulation
